Legend:
[1] = test system: cytotoxicity; parameters: method as in Rosselli-Murai et al., 2018; conditions: ref Rosselli-Murai et al., 2018; cited from earlier work
[2] = test system: TD–AP2 interactions; assay: GST-TD (1–580) pulldown of AP2 from mouse brain extract; format: biochemical; conditions: increasing peptide concentrations, overnight at 4°C, Western blot, three independent runs (Fig. 9 B, C)
Protocol: A mouse brain was homogenized using a Dounce tissue grinder (Sartorius) in 1 ml MES buffer (100 mM Mes, 1 mM EGTA, 0.5 mM MgCl2, and 0.1 mM PMSF, pH 6.4). After spinning at 5,000 g and 4°C for 3 min, the supernatant was ultracentrifuged at 110,000 g for 60 min. The resulting pellet was then resuspended in extraction buffer (3 vol of 1 M Tris, pH 8, 1 vol Mes buffer, with added PMSF and DTT to 0.1 mM each) for 30 min at room temperature. The resuspended solution was ultracentrifuged at 110,000 g for 60 min to collect supernatant containing released coat proteins. The brain extract buffer was exchanged to pulldown reaction buffer (50 mM Tris, 150 mM NaCl, and 0.1 mM EGTA, pH 7.5) using zeba spin desalting columns (Thermo Fisher Scientific).
In the pulldown assay, 75 µg GST-TD (residues 1–580) in reaction buffer was mixed with coat protein fractions (10% of total extract from a mouse brain) and the indicated concentrations of peptides. The mixture was incubated with 50 µl of a 50% slurry of glutathione Sepharose 4B beads (ABT) and left to rotate overnight at 4°C. Subsequently, beads were collected by spinning down at 1,000 g for 2 min and washed twice with reaction buffer. The beads were resuspended in Laemmli sample buffer and denatured at 95°C before running on 7.5% SDS-PAGE and Western blotting.

[3] = target: SNX9 (Homo sapiens, UniProt Q9Y5X1); assay: Isothermal titration calorimetry with SNX9; format: binding; conditions: ITC, 1.8 mM peptide injected into 50 µM SNX9
SNX9, sequence (Q9Y5X1 whole entry, species assumed): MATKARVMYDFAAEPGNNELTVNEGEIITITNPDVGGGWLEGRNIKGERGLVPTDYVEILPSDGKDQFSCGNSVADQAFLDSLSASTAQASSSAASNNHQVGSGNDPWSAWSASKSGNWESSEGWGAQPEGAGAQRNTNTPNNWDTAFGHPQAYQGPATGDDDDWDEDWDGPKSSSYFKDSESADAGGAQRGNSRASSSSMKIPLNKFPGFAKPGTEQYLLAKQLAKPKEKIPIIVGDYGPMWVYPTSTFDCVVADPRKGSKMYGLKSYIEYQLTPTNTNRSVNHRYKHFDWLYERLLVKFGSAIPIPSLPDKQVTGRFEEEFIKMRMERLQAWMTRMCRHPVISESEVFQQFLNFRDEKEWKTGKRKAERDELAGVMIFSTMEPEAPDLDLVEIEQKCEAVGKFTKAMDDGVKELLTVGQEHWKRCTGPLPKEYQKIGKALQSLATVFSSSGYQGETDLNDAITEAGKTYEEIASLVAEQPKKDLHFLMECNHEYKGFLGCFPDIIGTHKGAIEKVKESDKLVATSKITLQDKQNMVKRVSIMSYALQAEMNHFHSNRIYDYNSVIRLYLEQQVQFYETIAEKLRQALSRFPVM
Description: GUSSI was further used to output the figures presented.

[4] = test system: TfnR uptake via CME in ARPE/HPV cells; assay: TfnR uptake (in-cell ELISA) after peptide preincubation; format: cell-based; conditions: 60-min preincubation at 37°C (Fig. 7 F), TAT at concentrations <100 µM
Protocol: Peptides encoding the TAT sequence (YGRKKRRQRRR) followed by 10 amino acid sequences covering the four reported binding sites on the clathrin terminal domain (Fig. 7 A) were synthesized by GenScript (Piscataway, NJ) with >95% purity. Peptides were dissolved in dH2O and further diluted in PBS4+ (1× PBS buffer plus 0.2% BSA, 1 mM CaCl2, 1 mM MgCl2, and 5 mM D-glucose) or cell culture medium (for imaging) when applied to cells. Peptide solutions were stored at −20°C.
Internalization of TfnR, CD44, CD59, and Biotin-Tfn was quantified by in-cell ELISA following established protocols ([Conner and Schmid, 2003]; [Srinivasan et al., 2018]). Cells were seeded in 96-well plates (Costar) at 60–70% confluence and grown overnight. Before the assay, cells were starved for 30 min in PBS4+ at 37°C or treated with peptides in PBS4+ at 37°C for the indicated times. After starvation, cells were moved to 4°C, and culture medium was replaced with cold PBS4+ containing 5 µg/ml HTR-D65 (anti-TfnR mAb; [Schmid and Smythe, 1991]), anti-human CD44 or anti-human CD59 (BD PharMingen) or 5 µg/ml Biotin-Tfn (Sigma-Aldrich). For single-round assays, the above reagents were kept with cells for 20 min at 4°C and then washed out before uptake assay. For multiround assays, the above reagents were kept with cells throughout the uptake process. In parallel, some cells were kept at 4°C for the measurement of surface-bound ligands and blank controls, and some were incubated in a 37°C water bath for the indicated times. Acid wash (0.2 M acetic acid and 0.2 M NaCl, pH 2.3) was used to remove surface-bound antibodies, followed by washing with cold PBS. All were fixed with 4% PFA (Electron Microscopy Sciences) in PBS for 30 min at 37°C. 0.1% Triton X-100 was added for 6.5 min to permeabilize cells, followed by addition of blocking buffer. HTR-D65–, CD44-, and CD59-treated cells were blocked with Q-PBS (PBS, 2% BSA, 0.1% lysine, and 0.01% saponin, pH 7.4), and Biotin-Tfn–treated cells were blocked with 2% casein. Surface-bound and internalized HTR-D65, CD44, and CD59 were probed with goat anti-mouse antibody conjugated with HRP (Sigma-Aldrich), and Biotin-Tfn was probed with Streptavidin-POD conjugate (Sigma-Aldrich). Color was developed using o-phenylenediamine dihydrochloride (OPD) solution (Sigma-Aldrich), and absorbance was read at 490 nm (Biotek Synergy H1 Hybrid Reader). Cell number variation among wells was accounted for by bicinchoninic acid assay reading at 562 nm.

Substance | cytotoxic concentration relative to CME-inhibitory concentration [1] | inhibition of AP2 pulldown by GST-TD [2] | interaction with SNX9 compared with Wbox2 [3] | inhibitory activity on TfnR uptake, concentration curve [4]
pitstop | cytotoxic at concentrations only approximately twofold higher |  |  | 
YGRKKRRQRRR [TAT, arginine-rich TAT peptide, negative control, reference compound] |  | much weaker inhibition | much weaker interactions | did not inhibit

From article PMC7480105, “Wbox2: A clathrin terminal domain–derived peptide inhibitor of clathrin-mediated endocytosis” (The Journal of Cell Biology, 2020)
